Assay results from patent US20250032448A1, “COMPOUND FOR USE IN THE TREATMENT AND/OR PREVENTION OF PARASITIC MEDIATED DISEASES” (priority 2016, published 2025).
Values after ≈ are worked out from the molar mass of the structure shown. Like-named read-outs stand apart in the source and are kept apart here.

What was measured:
[1] = test system: Plasmodium falciparum Dd2 (chloroquine-resistant strain); experiment: In vitro drug sensitivity assay (modified WHO microtest), schizont maturation; type: cell-based
Procedure: (§1) For malaria culture, venous blood (not more than 50 ml) was collected by venepuncture from healthy adult volunteers. Host leukocytes were removed using a CF11 column, and packed infected red blood cells were used for the in vitro drug sensitivity assay. Ethical approval for this study was obtained from the Institutional Review Board, National University of Singapore (IRB protocol reference: B-14-056).
(§2) Parasites were thawed and grown in leukocyte-depleted red blood cells at 2% haematocrit at 37° C. in controlled conditions (3% oxygen, 4% carbon dioxide and 93% nitrogen), in RPMI 1640 tissue culture medium supplemented with 50 μg/ml hypoxanthine, 25 mM 4-(2-hydroxyethyl) piperazine-1-ethanesulfonic acid (HEPES), 0.3 g/L L-glutamine, 11 mM glucose, 25 mM NaHCO3, 2.5 μg/ml gentamicin and 0.5% w/v Albumax II.
(§3) Parasites were synchronized using sorbitol treatment. Red blood cells were resuspended in 5% (w/v) D-sorbitol and incubated at 37° C. for 20 minutes, after which the erythrocytes were washed twice, resuspended in RPMI and returned to culture conditions. Thin smears were made before and after each experiment to determine parasitaemia and parasite stage.
(§4) Crude extracts or fractions were preliminarily screened at a single concentration. For preliminary screening of isolated compounds, the starting concentrations used were 11.36 μg/ml and 5.953 μg/ml. Duplicates were performed. […] Seven concentrations of serial dilutions (two-fold) of each extract were added in duplicate on the 96-well pre-dosed drug plates (Nunc, Singapore). […] Triplicates were performed for IC50 determination.
(§5) 200 μl of a 2% haematocrit blood medium mixture consisting of RPMI 1640, […] gentamicin sulphate, 25 mM PEPES, 11 mM glucose, 200 μM hypoxanthine, and 0.5% w/v Albumax II (Gibco, Singapore) was added to each well of plates pre-dosed with the extracts. The parasites were cultured continuously in vented culture flasks in a gas chamber at 37° C. with 5% CO2 until they reached mature stage.
(§6) Thick blood smears were made from each well and stained with 5% Giemsa solution for 15 mins, and examined microscopically. The average number of schizonts (defined as parasites with five or more chromatin dots visible under microscopy) remaining at the end of the 42-48 hour incubation period per 100 parasites in each well was determined by microscopy, and normalized to the control well. Ring stage parasites and gametocytes were not included in the count. The dose-response curves were analysed using nonlinear regression analysis, and the concentration which inhibited 50% growth (IC50) was derived using an inhibitory sigmoid Emax model (Le Nagard et al. 2011).

[2] = test system: Plasmodium falciparum 3D7 (chloroquine-sensitive strain); experiment: as above; type: cell-based
Procedure: as §1, §2, §3, §4, §5, §6

in vitro = settings: human
Procedure: (§7) Serial dilutions were performed using complete media (RPMI supplemented with 10% foetal bovine serum). The final concentration of DMSO for all test samples was not more than 0.4%.
(§8) Cytotoxicity was determined using the WST-1 assay (WST-1 cell proliferation reagent, Roche, Singapore). Exponentially growing NL20 cells were plated in 96-well plates at an optimized cell density of 3.5×10^4 cells/100 μl. The adherent cells were incubated overnight at 37° C. and 5% CO2 to allow attachment. After 48 h of treatment with test samples, the media were aspirated and replaced with 10% v/v WST-1 in complete media. The plates were incubated for 30 min. The absorbance in each well was quantitated at 440 nm against a reference wavelength of 650 nm using a microplate reader (EnSpire Multimode Plate Reader, PerkinElmer, USA).
(§9) Cell viability was expressed as a percentage of the vehicle control. […] Each reported value is the mean±SD from three independent experiments. The selectivity index (SI) was determined by taking the ratio of IC50 against P. falciparum and CC50 against NL20 cells.

NL20 cells = experiment: Cytotoxicity assay (WST-1)
Procedure: as §7, §8, §9

uninfected host RBCs = type: cell-based; settings: human, 1 h
Procedure: The toxicity of anisolactone in uninfected host RBCs was evaluated using the haemolysis assay, according to a protocol described previously by Sarkar et al. (2016) with some modifications. Freshly obtained RBCs were washed thrice with PBS (pH 7.4). The haemolysis assay was performed at 2% hematocrit with two-fold serial dilutions from 0.1 mg/ml of test compounds in a final volume of 200 μl, followed by incubation at 37° C. for 1 h. 1% Triton-X (v/v) was used as a positive control. Non-specific haemolysis was corrected for by using untreated RBCs as negative control. After incubation, the plates were centrifuged at 2000 rpm for 5 min and the absorbance of the supernatant was measured at 540 nm using a spectrophotometric plate reader (Tecan Sunrise, Switzerland) to measure the amount of haemoglobin released upon RBC lysis. The percentage of haemolysis was calculated as follows: [(Optical density (OD)540 of sample−OD540 of PBS)/(OD540 of 1% Triton X-100−OD540 of PBS)]×100. The compounds were tested in triplicates. Ethics approval for this study was obtained from the Institutional Review Board, National University of Singapore (IRB protocol reference: B-14-056).

[3] = DD2, read-out: IC50 (in μg/ml) against P. falciparum Dd2
[4] = DD2, read-out: IC50 against P. falciparum Dd2 (molar value in brackets)
[5] = 3D7, read-out: IC50 (in μg/ml) against P. falciparum 3D7
[6] = 3D7, read-out: IC50 against P. falciparum 3D7 (Table 4)
[7] = 3D7, read-out: IC50 against P. falciparum 3D7 (molar value in brackets)

| IC50 ([2]; 3D7, n = 3, 42-48 hour incubation, read-out: IC50 (in μg/ml) against P. falciparum 3D7) | IC50 ([2]; 3D7, n=3, read-out: IC50 against P. falciparum 3D7 (molar value in brackets)) | SMILES | IC50 [1, 3] | IC50 [1, 4] | IC50 [2, 5] | IC50 [2, 6] | IC50 [2, 7] | CC50 at 48 h (in vitro) | SI (selectivity index) (NL20 cells; P. falciparum 3D7 IC50 versus NL20 CC50) | % Haemolysis (uninfected host RBCs) | IC50 ([2]; 3D7, as used for the selectivity index, read-out: IC50 against P. falciparum 3D7 (Table 4)) | cytotoxic effects on host cells (NL20) (NL20 cells) |
| --- | --- | --- | --- | --- | --- | --- | --- | --- | --- | --- | --- | --- |
| – | – | C[C@H]1[C@H](OC(=O)CCC(=O)O)O[C@@H]2O[C@@]3(C)CC[C@H]4[C@H](C)CC[C@@H]1[C@@]24OO3 [Artesunate, artesunate] | 0.00211 ± 6.8e-07 µg/mL | 5.48 nM | 0.000693 ± 1.11e-08 µg/mL | 0.000693 µg/mL | 1.8 nM | 5.63 ± 0.82 µg/mL (≈ 14.6 µM) | 8123 | – | – | – |
| – | – | CCN(CC)CCCC(C)Nc1ccnc2cc(Cl)ccc12 (centres unmarked) [Chloroquine, chloroquine diphosphate] | 0.16 ± 0.04 µg/mL | 310 nM | 0.0128 ± 1.4e-05 µg/mL | 0.0128 µg/mL | 24.4 nM | – | – | – | – | – |
| 7.5 µg/mL | 20500 nM | CC1=CC(C/C(C)=C/COc2c3ccoc3cc3oc(=O)ccc23)OC1=O (centres unmarked) [Compound 1, anisolactone] | – | – | – | – | – | – | – | 0.99 ± 0.28% | 7.5 µg/mL | did not exhibit cytotoxic effects |
